# Read-outs that look alike come from different tables or passages of the source.
# Key:
# [1] = system: 134 cancer cell lines; experiment: Cell viability assay (ATPlite, 72 hours), IC50 on cancer cell line panel
# [2] = system: AP-1060 (ETV6-NTRK3); experiment: Cell viability assay; details: read-out: IC50 in cell proliferation assay
compound,measurement,setting,value
CCc1nc(C(N)=O)c(Nc2ccc(N3CCC(N4CCN(C)CC4)CC3)c(OC)c2)nc1NC1CCOCC1 [gilteritinib],IC50,"[1]; Homo sapiens, MV4-11, read-out: IC50 in cell proliferation assay, MV4-11 cell line (FLT3 ITD)",0.832 nM
same,IC50,"[1]; Homo sapiens, MeWo, read-out: IC50 in cell proliferation assay, MeWo cell line",336 nM
same,IC50,"[1]; Homo sapiens, NCCIT, read-out: IC50 in cell proliferation assay, NCC-IT cell line",307 nM
same,IC50,"[1]; Homo sapiens, NCI-H82, read-out: IC50 in cell proliferation assay, cell line NCI-H82",300 nM
same,IC50,"[1]; Homo sapiens, NCI-H460, read-out: IC50 in cell proliferation assay, NCI-H460 cell line",499 nM
same,IC50,"[1]; Homo sapiens, NCI-H661, read-out: IC50 in cell proliferation assay, NCI-H661 cell line",233 nM
same,IC50,"[1]; Homo sapiens, NCI-H716, read-out: IC50 in cell proliferation assay, cell line NCI-H716 (FGFR2-COL14A1)",584 nM
same,IC50,"[1]; Homo sapiens, NCI-H1650, read-out: IC50 in cell proliferation assay, NCI-H1650 cell line (EGFR exon19del)",471 nM
same,IC50,"[1]; Homo sapiens, NCI-H1975, read-out: IC50 in cell proliferation assay, NCI-H1975 cell line (EGFR p.L858R + p.T790M)",495 nM
same,IC50,"[1]; Homo sapiens, NCI-H2228, read-out: IC50 in cell proliferation assay, NCI-H2228 cell line (EML4-ALK)",1.84 nM
same,IC50,"[1]; Homo sapiens, OVCAR-3, read-out: IC50 in cell proliferation assay, cell line OVCAR-3",591 nM
same,IC50,"[1]; Homo sapiens, PFSK-1, read-out: IC50 in cell proliferation assay, cell line PFSK-1",319 nM
same,IC50,"[1]; Homo sapiens, RL95-2, read-out: IC50 in cell proliferation assay, cell line RL95-2 (EGFR p.A289V)",177 nM
same,IC50,"[1]; Homo sapiens, RPMI-7951, read-out: IC50 in cell proliferation assay, cell line RPMI-7951 (BRAF p.V600E)",645 nM
same,IC50,"[1]; Homo sapiens, RS4-11, read-out: IC50 in cell proliferation assay, cell line RS4;11",388 nM
same,IC50,"[1]; Homo sapiens, Rec1, read-out: IC50 in cell proliferation assay, cell line REC-1",1390 nM
same,IC50,"[1]; Homo sapiens, SHP77, read-out: IC50 in cell proliferation assay, cell line SHP-77",2470 nM
same,IC50,"[1]; Homo sapiens, SK-BR-3, read-out: IC50 in cell proliferation assay, cell line SK-BR-3 (ERBB2 amplification)",12500 nM
same,IC50,"[1]; Homo sapiens, SK-N-AS, read-out: IC50 in cell proliferation assay, cell line SK-N-AS",439 nM
same,IC50,"[1]; Homo sapiens, SK-N-FI, read-out: IC50 in cell proliferation assay, cell line SK-N-FI",242 nM
same,IC50,"[1]; Homo sapiens, SK-N-MC, read-out: IC50 in cell proliferation assay, cell line SK-N-MC",242 nM
same,IC50,"[1]; Homo sapiens, SK-N-SH, read-out: IC50 in cell proliferation assay, cell line SK-N-SH (ALK p.F1174L)",415 nM
same,IC50,"[1]; Homo sapiens, SNU-5, read-out: IC50 in cell proliferation assay, cell line SNU-5 (MET amplification)",466 nM
same,IC50,"[1]; Homo sapiens, SNU-16, read-out: IC50 in cell proliferation assay, cell line SNU-16 (FGFR2 amplification)",1090 nM
same,IC50,"[1]; Homo sapiens, SNU-C2B, read-out: IC50 in cell proliferation assay, cell line SNU-C2B (EGFR p.R165Q)",352 nM
same,IC50,"[1]; Homo sapiens, SU-DHL-1, read-out: IC50 in cell proliferation assay, cell line SU-DHL-1 (NPM1-ALK)",19 nM
same,IC50,"[1]; Homo sapiens, SU-DHL-6, read-out: IC50 in cell proliferation assay, cell line SU-DHL-6",993 nM
same,IC50,"[1]; Homo sapiens, SUP-T1, read-out: IC50 in cell proliferation assay, cell line SUP-T1",956 nM
same,IC50,"[1]; Homo sapiens, SW48, read-out: IC50 in cell proliferation assay, cell line SW48 (EGFR p.G719S)",286 nM
same,IC50,"[1]; Homo sapiens, SW480, read-out: IC50 in cell proliferation assay, cell line SW480",1360 nM
same,IC50,"[1]; Homo sapiens, SW626, read-out: IC50 in cell proliferation assay, cell line SW626",551 nM
same,IC50,"[1]; Homo sapiens, SW780, read-out: IC50 in cell proliferation assay, cell line SW780 (FGFR3-BAIAP2L1)",483 nM
same,IC50,"[1]; Homo sapiens, SW837, read-out: IC50 in cell proliferation assay, cell line SW837",1950 nM
same,IC50,"[1]; Homo sapiens, SW872, read-out: IC50 in cell proliferation assay, cell line SW872 (BRAF p.V600E)",302 nM
same,IC50,"[1]; Homo sapiens, SW900, read-out: IC50 in cell proliferation assay, cell line SW900",315 nM
same,IC50,"[1]; Homo sapiens, SW948, read-out: IC50 in cell proliferation assay, cell line SW948",789 nM
same,IC50,"[1]; Homo sapiens, SW982, read-out: IC50 in cell proliferation assay, cell line SW982 (BRAF p.V600E)",323 nM
same,IC50,"[1]; Homo sapiens, SW-620, read-out: IC50 in cell proliferation assay, cell line SW620",527 nM
same,IC50,"[1]; Homo sapiens, T98G, read-out: IC50 in cell proliferation assay, cell line T98G",819 nM
same,IC50,"[1]; Homo sapiens, TCC-SUP, read-out: IC50 in cell proliferation assay, cell line TCCSUP",326 nM
same,IC50,"[1]; Homo sapiens, THP-1, read-out: IC50 in cell proliferation assay, cell line THP-1",1120 nM
same,IC50,"[1]; Homo sapiens, U2OS, read-out: IC50 in cell proliferation assay, cell line U2OS",224 nM
same,IC50,"[1]; Homo sapiens, U-87 MG, read-out: IC50 in cell proliferation assay, cell line U-87MG ATCC",2250 nM
same,IC50,"[1]; Homo sapiens, U-118-MG, read-out: IC50 in cell proliferation assay, cell line U-118MG",1330 nM
same,IC50,"[1]; Homo sapiens, UMUC3, read-out: IC50 in cell proliferation assay, cell line UM-UC-3",461 nM
same,IC50,"[1]; Hs766T, read-out: IC50 in cell proliferation assay, Hs 766T cell line",343 nM
same,IC50,"[1]; L-82, read-out: IC50 in cell proliferation assay, L-82 cell line (NPM1-ALK)",2 nM
same,IC50,"[1]; Rh30, read-out: IC50 in cell proliferation assay, cell line Rh30",355 nM
same,IC50,"[1]; read-out: IC50 in cell proliferation assay, 11-18 cell line (EGFR p.L858R)",580 nM
same,IC50,"[1]; read-out: IC50 in cell proliferation assay, Hs 852.T cell line",193 nM
same,IC50,"[1]; read-out: IC50 in cell proliferation assay, JAR cell line",476 nM
same,IC50,"[1]; read-out: IC50 in cell proliferation assay, cell line 5637",545 nM
same,IC50,"[1]; read-out: IC50 in cell proliferation assay, cell line A-388",1300 nM
same,IC50,"[1]; read-out: IC50 in cell proliferation assay, cell line DB",893 nM
same,IC50,"[1]; read-out: IC50 in cell proliferation assay, cell line DEL (NPM1-ALK)",2.58 nM
same,IC50,"[1]; read-out: IC50 in cell proliferation assay, cell line ES-2 (BRAF p.V600E)",712 nM
same,IC50,"[1]; read-out: IC50 in cell proliferation assay, cell line PA-1",489 nM
same,IC50,"[1]; read-out: IC50 in cell proliferation assay, cell line PC-3",889 nM
same,IC50,"[1]; read-out: IC50 in cell proliferation assay, cell line RD",290 nM
same,IC50,"[1]; read-out: IC50 in cell proliferation assay, cell line RKO (BRAF p.V600E)",1340 nM
same,IC50,"[1]; read-out: IC50 in cell proliferation assay, cell line RL",2600 nM
same,IC50,"[1]; read-out: IC50 in cell proliferation assay, cell line RT-4 (FGFR3-TACC3)",1390 nM
same,IC50,"[1]; read-out: IC50 in cell proliferation assay, cell line SR (NPM1-ALK)",22 nM
same,IC50,"[1]; read-out: IC50 in cell proliferation assay, cell line T24",329 nM
same,IC50,"[1]; read-out: IC50 in cell proliferation assay, cell line TT (RET p.C634W)",178 nM
same,IC50,"[1]; read-out: IC50 in cell proliferation assay, cell line VA-ES-BJ",431 nM
same,IC50,[2],417 nM

# Reference: PMC9516332 (Frontiers in Oncology, 2022)
